From ChEMBL document CHEMBL6078698, “Discovery of 6-Fluoro-5-{4-[(5-fluoro-2-methyl-3-oxo-3,4-dihydroquinoxalin-6-yl)methyl]piperazin-1-yl}-N-methylpyridine-2-carboxamide (AZD9574): A CNS-Penetrant, PARP1-Selective Inhibitor” (J Med Chem, 2024) come the findings set out here.

Data set [1] addresses Poly [ADP-ribose] polymerase 1 (Homo sapiens, UniProt P09874). The experiment in a line: Inhibition of N-terminal 6His-tagged full-length recombinant human PARP1 by fluorescence anisotropy assay.
A short description of data set [2]: Lipophilicity, log D of compound at pH 7.4. The class given is physicochemical. The settings on record: buffer.
Data set [3] is described as follows: Solubility of compound at pH 7.4. Format: physicochemical. The settings on record: buffer.
In data set [4] the target is Poly [ADP-ribose] polymerase 2 (Homo sapiens, UniProt Q9UGN5). In words: Inhibition of N-terminal 6His-tagged full-length recombinant human PARP2 by fluorescence anisotropy assay. Background: In fluorescence polarisation assays a small probe gives low polarisation when free and higher when bound to something large.
Chain of Poly [ADP-ribose] polymerase 2 (Q9UGN5 whole entry): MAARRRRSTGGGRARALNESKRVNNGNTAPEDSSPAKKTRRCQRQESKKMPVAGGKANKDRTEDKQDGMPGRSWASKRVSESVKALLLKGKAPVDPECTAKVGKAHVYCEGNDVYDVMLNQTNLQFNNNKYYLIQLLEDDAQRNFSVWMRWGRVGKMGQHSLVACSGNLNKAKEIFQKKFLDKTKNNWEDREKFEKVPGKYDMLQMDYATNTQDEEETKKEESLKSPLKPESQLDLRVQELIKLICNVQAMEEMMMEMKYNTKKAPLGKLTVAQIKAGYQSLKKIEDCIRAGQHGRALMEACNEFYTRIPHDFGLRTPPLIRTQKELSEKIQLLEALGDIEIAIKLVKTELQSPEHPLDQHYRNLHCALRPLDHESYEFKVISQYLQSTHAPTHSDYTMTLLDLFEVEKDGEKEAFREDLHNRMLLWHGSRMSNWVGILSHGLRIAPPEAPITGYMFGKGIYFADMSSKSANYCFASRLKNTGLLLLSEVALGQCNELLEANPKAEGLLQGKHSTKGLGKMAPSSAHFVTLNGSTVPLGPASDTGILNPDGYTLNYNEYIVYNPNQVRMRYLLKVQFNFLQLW
Data set [5] deals with MDR1 (P-gp), BCRP. The experiment in a line: Efflux ratio in MDCK-MDR1-BCRP cells. Format: ADME, cell-based, Canis lupus familiaris. Particulars: dog.
Data set [6] in a line: Intrinsic clearance in human liver microsomes. Format: ADME, Microsome. The settings on record: read-out: CLH.
A short description of data set [7]: Ratio of unbound drug concentration in brain to plasma of rat. Particulars: for Kp uu: brain and plasma (unbound), read-out: K(p,uu,brain). Format: ADME, cell-free.
A short description of data set [8]: Half life in Beagle dog at 1 mg/kg, po or 1 mg/kg, iv. Format: ADME, organism-based, Canis lupus familiaris. Particulars: in vivo.
For data set [9], the target named is hERG (KCNH2) (Homo sapiens, UniProt Q12809). In words: (§1) Inhibition of hERG transfected in CHO cells by electrophysiology. The settings on record: human, CHO cells transfected with hERG. The class given is toxicity, cell-based. In general terms: Block of hERG is tested as a sign of cardiac risk.
Chain of hERG (KCNH2) (Q12809 whole entry): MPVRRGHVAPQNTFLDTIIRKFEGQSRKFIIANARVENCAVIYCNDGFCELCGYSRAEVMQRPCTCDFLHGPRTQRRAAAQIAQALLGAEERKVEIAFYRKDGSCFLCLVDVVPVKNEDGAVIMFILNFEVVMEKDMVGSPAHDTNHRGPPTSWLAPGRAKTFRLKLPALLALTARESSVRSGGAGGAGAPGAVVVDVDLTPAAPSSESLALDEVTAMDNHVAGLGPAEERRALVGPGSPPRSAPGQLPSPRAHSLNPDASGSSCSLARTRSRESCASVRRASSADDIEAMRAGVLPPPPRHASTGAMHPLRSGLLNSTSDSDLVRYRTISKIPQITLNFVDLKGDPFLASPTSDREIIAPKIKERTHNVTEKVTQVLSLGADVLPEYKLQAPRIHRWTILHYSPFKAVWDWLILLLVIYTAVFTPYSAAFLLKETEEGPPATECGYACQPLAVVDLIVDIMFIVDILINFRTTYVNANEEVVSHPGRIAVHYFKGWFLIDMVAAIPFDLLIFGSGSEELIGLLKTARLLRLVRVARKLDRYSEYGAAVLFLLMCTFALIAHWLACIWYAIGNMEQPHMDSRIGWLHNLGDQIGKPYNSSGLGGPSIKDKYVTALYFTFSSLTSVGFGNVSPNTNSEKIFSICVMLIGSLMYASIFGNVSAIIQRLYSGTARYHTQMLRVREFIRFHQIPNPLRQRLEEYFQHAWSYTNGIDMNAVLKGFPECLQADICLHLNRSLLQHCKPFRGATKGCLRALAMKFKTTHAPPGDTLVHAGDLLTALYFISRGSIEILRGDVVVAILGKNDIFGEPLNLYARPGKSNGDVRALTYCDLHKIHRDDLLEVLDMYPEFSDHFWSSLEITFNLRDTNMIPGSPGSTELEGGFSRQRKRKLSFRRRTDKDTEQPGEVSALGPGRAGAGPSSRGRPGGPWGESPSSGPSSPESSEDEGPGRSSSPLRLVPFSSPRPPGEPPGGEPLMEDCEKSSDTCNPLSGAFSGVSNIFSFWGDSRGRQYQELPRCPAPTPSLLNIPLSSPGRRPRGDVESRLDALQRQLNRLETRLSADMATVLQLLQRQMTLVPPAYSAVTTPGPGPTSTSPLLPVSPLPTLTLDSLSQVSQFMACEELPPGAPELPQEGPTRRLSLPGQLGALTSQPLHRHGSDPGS
The test system of data set [10] is DLD-1. In words: Antitumor activity against human DLD-1 cells expressing BRCA2-/- xenografted in mouse at 10 mg/kg administered once daily for 5 weeks relative to control. Format: functional. Particulars: DLD-1, 840 h, read-out: TGI.
A short description of data set [11]: Half life in Han Wistar rat at 1 mg/kg, po or 1 mg/kg, iv. Particulars: in vivo. The class given is ADME, organism-based.
Data set [12] is described as follows: Toxicity in mouse xenografted with human DLD-1 cells expressing BRCA2-/- assessed as drug tolerance at 3 to 30 mg/kg administered once daily for 5 weeks. The class given is organism-based. Particulars: in vivo, 840 h, dose 3-30 mg/kg. For orientation: Xenograft models place foreign cells or tissue in a host animal.
In data set [13] the test system is DLD-1. The experiment in a line: Antitumor activity against human DLD-1 cells expressing BRCA2-/- xenografted in mouse at 3 mg/kg administered once daily for 5 weeks relative to control. The settings on record: DLD-1, 840 h, read-out: TGI. Format: functional.
A short description of data set [14]: Half life in Cynomolgous monkey at 1 mg/kg, po or 0.5 mg/kg, iv. The settings on record: cynomolgus monkey, in vivo. Format: ADME, organism-based, Macaca fascicularis.
Data set [15] in a line: Unbound fraction in Han Wistar rat plasma at 1 mg/kg, po or 1 mg/kg, iv. Format: ADME, organism-based. Particulars: in vivo.
The nature of data set [16]: Oral bioavailability in Cynomolgous monkey at 1 mg/kg. The class given is ADME, organism-based, Macaca fascicularis. The settings on record: cynomolgus monkey, in vivo.
Data set [17] in a line: Oral bioavailability in Beagle dog at 1 mg/kg. Format: ADME, organism-based, Canis lupus familiaris. The settings on record: in vivo.
Data set [18] is described as follows: Unbound fraction in CD-1 mouse plasma at 1 mg/kg, po or 0.5 mg/kg, iv. The class given is ADME, organism-based. Particulars: in vivo.
The nature of data set [19]: Toxicity in mouse xenografted with human DLD-1 cells expressing BRCA2-/- assessed as body weight reduction at 3 to 30 mg/kg administered once daily for 5 weeks. Format: organism-based. Particulars: in vivo, 840 h, dose 3-30 mg/kg.
Data set [20] is described as follows: Volume of distribution at steady state in Cynomolgous monkey at 1 mg/kg, po or 0.5 mg/kg, iv. Format: ADME, organism-based, Macaca fascicularis. The settings on record: cynomolgus monkey, in vivo.
A short description of data set [21]: Unbound fraction in Cynomolgous monkey plasma at 1 mg/kg, po or 0.5 mg/kg, iv. The class given is ADME, organism-based, Macaca fascicularis. Particulars: cynomolgus monkey, in vivo.
Data set [22] is described as follows: Inhibition of cell proliferation of human DLD-1 cells expressing BRCA2-/- incubated for 7 days by Sytox green dye based analysis. Format: functional. Particulars: DLD-1, 168 h.
A short description of data set [23]: Half life in CD-1 mouse at 1 mg/kg, po or 0.5 mg/kg, iv. Particulars: in vivo. The class given is ADME, organism-based.
For data set [24], the system named is DLD-1. The experiment in a line: Antitumor activity against human DLD-1 cells expressing BRCA2-/- xenografted in mouse at 30 mg/kg administered once daily for 5 weeks relative to control. Particulars: DLD-1, 840 h, read-out: TGI. The class given is functional.
Data set [25] is described as follows: Volume of distribution at steady state in CD-1 mouse at 1 mg/kg, po or 0.5 mg/kg, iv. The class given is ADME, organism-based. The settings on record: in vivo.
A short description of data set [26]: Unbound fraction in Beagle dog plasma at 1 mg/kg, po or 1 mg/kg, iv. The settings on record: in vivo. The class given is ADME, organism-based, Canis lupus familiaris.
The nature of data set [27]: Volume of distribution at steady state in Han Wistar rat at 1 mg/kg, po or 1 mg/kg, iv. The settings on record: in vivo. The class given is ADME, organism-based.
A short description of data set [28]: Oral bioavailability in Han Wistar rat at 1 mg/kg. The class given is ADME, organism-based. Particulars: in vivo.
Data set [29] in a line: Volume of distribution at steady state in Beagle dog at 1 mg/kg, po or 1 mg/kg, iv. Format: ADME, organism-based, Canis lupus familiaris. Particulars: in vivo.
A short description of data set [30]: Oral bioavailability […] in CD-1 mouse at 1 mg/kg. Format: ADME, organism-based. Particulars: in vivo.
In data set [31] the target is Voltage-gated inwardly rectifying potassium channel KCNH2 (Homo sapiens, UniProt Q12809). Described as §1. Format: toxicity, cell-based.
Chain of Voltage-gated inwardly rectifying potassium channel KCNH2 (Q12809 whole entry): as above
Data set [32] relates to DLD-1. The experiment in a line: Antitumor activity against human DLD-1 cells expressing BRCA2-/- xenografted in athymic nude Foxn1nu mouse at 100 mg/kg administered once daily for 28 days relative to control. Format: functional. Particulars: DLD-1, 672 h, time 28 day, read-out: TGI.

Converted amounts (≈) assume the structure as drawn.

Chain of Poly [ADP-ribose] polymerase 1 (P09874 whole entry): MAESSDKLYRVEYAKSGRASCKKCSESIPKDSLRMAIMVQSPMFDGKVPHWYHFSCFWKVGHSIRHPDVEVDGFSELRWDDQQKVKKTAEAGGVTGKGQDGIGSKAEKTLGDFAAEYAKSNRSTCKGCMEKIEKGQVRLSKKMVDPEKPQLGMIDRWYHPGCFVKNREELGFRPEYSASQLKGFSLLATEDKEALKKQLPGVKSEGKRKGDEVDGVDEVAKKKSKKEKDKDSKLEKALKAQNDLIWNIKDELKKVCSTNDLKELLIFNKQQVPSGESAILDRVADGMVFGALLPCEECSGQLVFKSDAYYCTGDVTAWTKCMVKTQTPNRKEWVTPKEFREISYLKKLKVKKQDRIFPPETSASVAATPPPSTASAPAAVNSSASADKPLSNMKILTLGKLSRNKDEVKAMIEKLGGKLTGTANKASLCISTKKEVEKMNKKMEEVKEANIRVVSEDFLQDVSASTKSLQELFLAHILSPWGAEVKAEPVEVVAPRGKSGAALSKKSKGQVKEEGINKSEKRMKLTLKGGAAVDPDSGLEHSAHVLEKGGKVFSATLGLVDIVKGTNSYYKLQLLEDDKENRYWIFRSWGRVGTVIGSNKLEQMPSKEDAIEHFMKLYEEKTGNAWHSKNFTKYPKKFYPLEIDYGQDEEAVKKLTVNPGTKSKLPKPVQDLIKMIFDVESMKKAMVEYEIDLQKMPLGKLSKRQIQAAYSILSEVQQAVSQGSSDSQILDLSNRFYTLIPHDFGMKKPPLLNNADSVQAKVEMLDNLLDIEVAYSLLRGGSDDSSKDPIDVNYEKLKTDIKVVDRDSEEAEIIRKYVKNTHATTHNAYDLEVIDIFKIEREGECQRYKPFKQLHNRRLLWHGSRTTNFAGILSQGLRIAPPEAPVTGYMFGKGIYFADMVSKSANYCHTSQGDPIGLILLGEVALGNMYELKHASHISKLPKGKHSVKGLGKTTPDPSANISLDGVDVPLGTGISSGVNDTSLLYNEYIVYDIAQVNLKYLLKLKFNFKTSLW

On to `CNC(=O)c1ccc(N2CCN(Cc3ccc4nc(C)c(=O)[nH]c4c3)CC2)c(F)n1`, for which the figures for the IC50 in data set [1] and in data set [4] were 8 nM and 26 µM, respectively. Also, the logD (in general, lipophilicity at a set pH, counting ionised and neutral species) in data set [2] turned out to be 2.1. In [3], the solubility (in general, how much of the substance goes into solution per volume) was determined as 26 µM (≈ 10.7 µg/mL). Also, the efflux ratio (in general, a quotient of directional permeabilities that is used to spot active efflux) in [5] was 3.6. The microsomal CLint in data set [6] was less than 3 µL/min/mg.
As to `CNC(=O)c1ccc(N2CCN(Cc3ccc4nc(C)c(=O)[nH]c4c3F)CC2)c(F)n1` [AZD-9574], in [7], the Kp uu worked out at 0.31. Besides, the half-life – broadly, how long it takes for the measured level to halve – in data set [8] was 720 min; in data set [11], 378 min; in data set [14], 630 min; in data set [23], 240 min. For the same compound, the IC50 (commonly the concentration that gives 50% inhibition) is greater than 40 µM in [9] and 16 nM in data set [22]. Also, the inhibition in vivo at 10 mg/kg in [10] turned out to be 73%. Also, the Activity result was “Non-toxic” in [12] and “Toxic” in data set [19]. Also, the inhibition in vivo at 3 mg/kg in data set [13] turned out to be 43%. Moreover, in data set [2], the logD was determined as 1.9. For the same compound, the Fu in data set [15] amounted to 13%; in data set [18], 20%; in [21] it was 16%; in data set [26] it was 25%. This compound also yielded a solubility in data set [3] of 19 µM (≈ 8.14 µg/mL). Moreover, the bioavailability in data set [16] stood at 95%; in data set [17], 91%; in data set [28], 50%; in [30], 116%. For the same compound, the Vdss amounted to 1.7 L/kg in data set [20], 2.7 L/kg in data set [25], 2.3 L/kg in [27] and 1.1 L/kg in data set [29]. Besides, in [24], the inhibition in vivo at 30 mg/kg was determined as 69%. In addition, the microsomal CLint in data set [6] was less than 3 µL/min/mg.
Turning to `C[C@]1(c2nc3c(C(N)=O)cccc3[nH]2)CCCN1` [VELIPARIB], the Kp uu in [7] came to 0.19. In data set [22], this compound had a half-maximal inhibitory concentration (IC50) of 1300 nM.
`CCc1nc2ccc(CN3CCN(c4ccc(C(=O)NC)nc4Cl)CC3)cc2[nH]c1=O`: the logD in data set [2] is 3. For the same compound, the solubility in [3] is 8 µM (≈ 3.53 µg/mL). The same compound showed an IC50 in [22] of 1 nM. In addition, the efflux ratio in [5] was determined as 6.7. Besides, the microsomal CLint in data set [6] amounted to 10 µL/min/mg.
For the compound `CNC(=O)c1ccc(N2CCN(Cc3ccc4c5c(c(=O)[nH]c4c3)COCC5)CC2)cn1`, the IC50 in data set [31] was greater than 40 µM; in data set [1], 4 nM; in [4] it was 0.69 µM. The compound also had a logD in [2] of 2. In [3], the solubility worked out at 1 µM (≈ 0.434 µg/mL). Besides, the efflux ratio in data set [5] was 6.8. In addition, the microsomal CLint in [6] came to 17 µL/min/mg.
On to `CCc1nc2ccc(CN3CCN(c4ccc(C(=O)NC)nc4F)CC3)c(Cl)c2[nH]c1=O`, for which the IC50 was greater than 40 µM in data set [9] and 17 nM in data set [22]. This compound also displayed a logD in [2] of 3.1. In data set [3], the concentration in solution (solubility) was 20 µM (≈ 9.18 µg/mL). Besides, the efflux ratio in [5] was determined as 0.4. Further, in data set [6], the microsomal CLint turned out to be 10 µL/min/mg.
Regarding `O=C(c1cc(Cc2n[nH]c(=O)c3ccccc23)ccc1F)N1CCN(C(=O)C2CC2)CC1` [OLAPARIB], the Kp uu in [7] was less than 0.1. Also, the inhibition in vivo at 100 mg/kg in [32] is 40%.
Turning to `NC(=O)c1cccc2cn(-c3ccc([C@@H]4CCCNC4)cc3)nc12` [NIRAPARIB], the Kp uu in data set [7] was less than 0.1. The compound also returned an IC50 in data set [22] of 167 nM.
`CCc1nc2ccc(CN3CCN(c4ccc(C(=O)NC)nc4F)CC3)c(F)c2[nH]c1=O`: in data set [7] (brain), the “K(p,uu,brain)” value was 0.43. In addition, the IC50 in data set [9] is greater than 40 µM; in data set [22], 5 nM. In addition, in data set [2], the logD turned out to be 2.6. Also, the solubility in data set [3] is less than 11 µM. Moreover, in data set [6], the microsomal CLint was less than 5 µL/min/mg.
`CCc1nc2ccc(CN3CCN(c4ccc(C(=O)NC)nc4)CC3)cc2[nH]c1=O`: the Kp uu in data set [7] was determined as 0.05.
Regarding `CCc1nc2ccc(CN3CCN(c4ccc(C(=O)NC)nc4F)CC3)cc2[nH]c1=O`, in data set [7], the Kp uu was determined as 0.1. The logD in data set [2] turned out to be 2.7. The compound also registered a solubility in data set [3] of 4 µM (≈ 1.7 µg/mL). In [22], this compound came in with an IC50 of 1 nM. Also, in data set [5], the efflux ratio turned out to be 2. For the same compound, the microsomal CLint in [6] came out at 8 µL/min/mg.
Consider `Cn1ncnc1[C@H]1c2n[nH]c(=O)c3cc(F)cc(c23)N[C@@H]1c1ccc(F)cc1` [TALAZOPARIB], for which the Kp uu in data set [7] is less than 0.1.
Take `CNCc1ccc(-c2[nH]c3cc(F)cc4c3c2CCNC4=O)cc1` [RUCAPARIB]: in data set [7], the Kp uu was less than 0.1. In addition, half-maximal inhibition in [22] (IC50) required 39 nM.
